Measurements published in patent publication US20090131480A1 (priority 2005, published 2009).

How the values were obtained:
[1] = tested on: dopamine turnover in mice striatum; test: Dopamine, DOPAC and HVA content / dopamine turnover in mice striatum (HPLC with electrochemical detection); type: in vivo, C57BL/6 mice; conditions: for dopamine turnover in mice: monotherapy vs combination, FIG. 3
Procedure: C57BL/6 mice (SLC, Shizuoka, Japan) were used for the experiment. […] The two drugs were orally administered by gavage 1 hour before sampling. At the time the mice were sacrificed, both striata were rapidly dissected and were frozen by liquid nitrogen. The samples were subsequently sonicated in 0.5 ml of chilled 0.5 M perchloric acid containing 0.1 M EDTA, and centrifuged at 13000 rpm for 15 min at 4° C. Then monoamine levels were measured by HPLC with electrochemical detection. Supernatant aliquots of 201 were separated over an Eicompak SC5-ODS column (3×150 mm; Eicom, Japan) with mobile phase of 17% methanol, 83% 0.1M acetate/citrate buffer (pH 3.5) containing 190 mg/ml sodium 1-octanesulfonate and 50 mg/ml EDTA, and a flow rate of 0.65 ml/min. Peaks of dopamine, DOPAC, HVA, 5-HT, and 5-HIAA were quantified by area integration with PowerChrom (eDAQ, Australia), and concentrations were expressed as nanograms per milligram of striatal tissue.

[2] = tested on: organotypic hippocampal slice cultures; test: Oxygen-glucose deprivation (OGD) in organotypic hippocampal slice cultures (PI fluorescence in CA1); type: cell-based, Wistar rat
Procedure: (§1) Medium was changed every 3-4 days.
(§2) Neurotoxicity protocols are outlined below.
(2) Oxygen-Glucose Deprivation (OGD): Experimental ischaemia was performed by exposing cultures to oxygen-glucose deprivation (OGD) as described previously. […] OGD was induced by transferring cultures to glucose-free SFM (+PI) which had been saturated with 95% N2/5% CO2. Culture plates (without lids) were then sealed into an airtight chamber in which the atmosphere was saturated with 95% N2/5% CO2 by continuously blowing through gas at 10 L/min for ten minutes before being sealed and placed in the incubator for 50 mins (total time of OGD was therefore 60 mins). At the end of the period of OGD cultures were returned to normoxic SFM containing PI and placed back in the incubator for 23 hours.

[3] = tested on: organotypic hippocampal slice cultures; test: Hypoxia-induced neurodegeneration in organotypic hippocampal slice cultures (PI fluorescence in CA1); type: cell-based, Wistar rat
Procedure: as §1, §2
(3) Hypoxia: Hypoxia was performed by exposing cultures to oxygen-deprivation as described previously. Pringle et al, Brain Research, 755:36-46 (1997); Pringle et al, Stroke, 27:2124-2130 (1996). Hypoxia was induced by transferring cultures to SFM (+PI) which had been saturated with 95% N2/5% CO2. Culture plates (without lids) were then sealed into an airtight chamber in which the atmosphere was saturated with 95% N2/5% CO2 by continuously blowing through gas at 10 L/min for ten minutes before being sealed and placed in the incubator for 170 mins (total time of hypoxia was therefore 180 mins). At the end of the period of hypoxia, cultures were returned to normoxic SFM (+PI) and placed back in the incubator for 21 hours. The freeradical scavenger MnTBAP (100 μM) was used as a positive neuroprotective control.

[4] = tested on: organotypic hippocampal slice cultures; test: AMPA toxicity in organotypic hippocampal slice cultures (PI fluorescence in CA1); type: cell-based, Wistar rat
Procedure: as §1, §2
(1) AMPA: Cultures were transferred to fresh SFM (+PI) containing 30 μM S-AMPA for 3 hours under normal culture conditions. At the end of this period, cultures were returned to fresh SFM for 21 hours prior to determination of neuronal death by PI imaging. GYKI52466 (30 μM) was used as a positive, neuroprotective control.

[5] = tested on: organotypic hippocampal slice cultures; test: Duroquinone free radical-mediated toxicity in organotypic hippocampal slice cultures (PI fluorescence in CA1); type: cell-based, Wistar rat; conditions: 100 μM; 100 μM duroquinone 3 hours; duroquinone alone 51.0±3.4%
Procedure: as §1, §2
(5) Free radical-mediated toxicity (Duroquinone): Duroquinone produces superoxide-mediated neurotoxicity producing a selective neuronal lesion in the CA1 region. Wilde et al, J. Neurochem., 69(2):883-886 (1997). Cultures were transferred to fresh SFM (+PI) containing 100 μM duroquinone for 3 hours under normal culture conditions. At the end of this period, cultures were returned to fresh SFM for 21 hours prior to determination of neuronal death by PI imaging. MnTBAP (100 μM) was used as a positive neuroprotective control.

[6] = C57BL/6, mouse, in vivo, po, 1 h

## N#Cc1ccccc1-c1cc(-c2ccccn2)cn(-c2ccccc2)c1=O [2-(2-oxo-1-phenyl-5-pyridin-2-yl-1,2-dihydropyridin-3-yl)benzonitrile]
[1]; 1 mg/kg, orally, 1 hour before sampling, FIG. 1
  content of HVA in striatum: elevated
[1]
  dopamine turnover in mice: modulated dopamine turnover but neither reached significance
[2]; any other concentration assessed (up to 3 μM), OGD alone 50.6±5.2%
  effect on OGD-induced neurotoxicity: no significant effect
[2]; six-point concentration-response curve
  EC50 in OGD model: could not be established
[3]; 5 μM, hypoxia alone 45.1±3.5%
  neuronal damage, % of CA1 with PI fluorescence: 3.9±1.8%

## CC1=NN=C(c2ccc(N)cc2)c2cc3c(cc2C1)OCO3 [GYKI52466]
[4]; 30 μM test compound, 30 μM AMPA 3 hours, AMPA alone 65.1±1.7%
  neuronal damage, % of CA1 with PI fluorescence: 14.3±2.3%
[4]; 30 μM, pre-incubation series, AMPA alone 46.5±5.0%
  neuronal damage, % of CA1 with PI fluorescence: 21.7±2.7%
[2]; 30 μM, 60 minutes OGD, OGD alone 50.6±5.2%
  neuronal damage, % of CA1 with PI fluorescence: 36.9±3.6%

## O=C(O)c1ccc(/C2=C3\C=CC(=N3)/C(c3ccc(C(=O)O)cc3)=c3/cc/c4[n]3[Mn]([Cl])[n]3c2ccc3/C(c2ccc(C(=O)O)cc2)=C2/C=CC(=N2)\C=4c2ccc(C(=O)O)cc2)cc1 [MnTBAP]
[5]
  neuronal damage, % of CA1 with PI fluorescence: 0.1±0.0%
[2]; 100 μM, 60 minutes OGD, OGD alone 50.6±5.2%
  neuronal damage, % of CA1 with PI fluorescence: 0.1±0.0%
[2]; 100 μM, second series, OGD alone 44.8±[…]
  neuronal damage, % of CA1 with PI fluorescence: 0.6±0.2%
[3]; 100 μM, 3 hours hypoxia, hypoxia alone 45.1±3.5%
  neuronal damage, % of CA1 with PI fluorescence: 0.2±0.1%
[3]; 100 μM, repeated experiment, hypoxia alone 36.9±[…]
  neuronal damage, % of CA1 with PI fluorescence: 0.8±0.4%
[3]; second set, hypoxia alone 36.4±[…]
  neuronal damage, % of CA1 with PI fluorescence: 0.0±0.0%

## COc1cc2c(cc1OC)C(=O)C(CC1CCN(Cc3ccccc3)CC1)C2 (stereo not shown) [donepezil, 1-benzyl-4-((5,6-dimethoxy-1-indanon)-2-yl)methylpiperidine]
[6]
  dose at which peripheral side effect was shown: ≥ 7.5 mg/kg
[1]; donepezil orally, 1 hour before sampling
  content of dopamine in striatum: reduced the content of dopamine significantly
[1]; donepezil orally, FIG. 2
  DPAC/DA: increased significantly
  HVA/DA: increased significantly
[1]
  dopamine turnover in mice: modulated dopamine turnover but neither reached significance
